Publication PMC6218115, “In Vitro Potency and Preclinical Pharmacokinetic Comparison of All-D-Enantiomeric Peptides Developed for the Treatment of Alzheimer’s Disease” (Journal of Alzheimer's Disease, 2018)
Non-standard residues stand in square brackets, D forms with d. Residues, ends and D or L forms follow the SMILES beside them.

Columns and labels:
Aβ1-42 oligomers = target: T1, Aβ1-42 oligomers (Homo sapiens, UniProt P05067); test: Quantitative determination of interference with Aβ aggregate size distribution (QIAD); assay type: biochemical; conditions: for Aβ concentrations in fractions 1 and 2 (Aβ monomers): 80 μM Aβ1-42, 20 μM peptide; for Aβ oligomer concentrations in fractions 4 to 6 versus Aβ1-42 alone: 80 μM Aβ1-42 pre-incubated 2.5 h, 20 μM peptide, 40 min, density gradient centrifugation, RP-HPLC UV 214 nm, p≤0.001
T1 construct: Lyophilized Aβ1 - 42 was dissolved in the respective peptide solution; purchased Isoloid GmbH (recombinant) or Bachem AG (synthetic)
T1 sequence (P05067 672-713 limits assumed): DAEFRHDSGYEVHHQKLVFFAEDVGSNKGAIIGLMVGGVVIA
Method: As soluble Aβ oligomers are currently expected to be the most neurotoxic Aβ species causing AD, the Aβ1 - 42 oligomer elimination potency of ANK6, tANK6, and cANK6r was investigated by the quantitative determination of interference with Aβ aggregate size distribution (QIAD) similar as described before. In short, lyophilized Aβ1 - 42 was dissolved in sodium phosphate buffer to a final concentration of 80μM and incubated for 2.5 h (21°C, 600 rpm) to achieve an Aβ aggregate distribution including monomers, oligomers, and higher molecular aggregates. Then, sodium phosphate buffer (control), 20μM ANK6, 20μM tANK6, or 20μM cANK6r were added and incubated for further 40 min (21°C, 600 rpm). Afterwards, the samples were loaded on top of a density gradient (5 to 50% (w/v) iodixanol, OptiPrep, Axis-Shield, Norway) and ultra-centrifuged for 3 h (4°C, 259.000× g, Optima TL-100, Beckman Coulter, USA). In the following, 14 fractions (140μL each) were taken from top to bottom, whereby the top fractions (1-2) contained Aβ monomers, the middle fractions (4–6) contained the Aβ oligomers of special interest, and the bottom fractions (11–14) contained high molecular weight co-precipitates. The left-over was diluted in 60μL 6 M guanidine hydrochloride (fraction 15). Finally, the Aβ1 - 42 concentrations in all fractions were determined via analytical RP-HPLC (reversed phase-high performance liquid chromatography) and UV absorbance detection at 214 nm.

tg-APPSwDI mice = conditions: intraperitoneal treatment, 4 weeks; Klein et al.; cited from earlier work
[1] = target: human serum albumin (HSA) (Homo sapiens, UniProt P02768); test: Plasma protein binding, TRANSIL XL HSA binding kit; assay type: in vitro ADME; conditions: TRANSIL XL HSA beads 7.4-420 μM, 5 μM peptide (3H-labelled + non-labelled), LSC read-out, nonlinear regression
Sequence of human serum albumin (HSA) (P02768 25-609): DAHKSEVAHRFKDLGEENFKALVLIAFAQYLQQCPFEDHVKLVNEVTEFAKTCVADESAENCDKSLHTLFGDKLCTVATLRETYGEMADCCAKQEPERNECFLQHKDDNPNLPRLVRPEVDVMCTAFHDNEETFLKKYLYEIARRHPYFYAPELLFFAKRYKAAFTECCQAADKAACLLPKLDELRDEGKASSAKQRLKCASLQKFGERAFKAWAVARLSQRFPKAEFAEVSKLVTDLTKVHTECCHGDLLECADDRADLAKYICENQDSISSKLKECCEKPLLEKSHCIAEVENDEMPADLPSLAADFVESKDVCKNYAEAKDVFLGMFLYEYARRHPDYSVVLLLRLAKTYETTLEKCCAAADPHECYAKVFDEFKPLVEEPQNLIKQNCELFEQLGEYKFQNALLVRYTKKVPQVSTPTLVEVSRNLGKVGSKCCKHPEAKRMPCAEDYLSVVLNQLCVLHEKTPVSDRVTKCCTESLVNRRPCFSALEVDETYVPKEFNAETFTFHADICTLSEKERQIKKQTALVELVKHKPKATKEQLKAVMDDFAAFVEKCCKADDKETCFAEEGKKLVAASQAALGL
Method: Plasma protein binding (PPB) to human serum albumin (HSA) and α1-acid glycoprotein (AGP) of ANK6, tANK6, and cANK6r was analyzed according to the manufacturer’s protocol of TRANSIL^XL HSA and AGP binding kits (Sovicell GmbH, Germany). To cover a larger range of HSA and AGP concentrations, the bead concentrations in the kit were modified. For detection, a mixture of ^3H-labelled and non-labelled ANK6, tANK6, and cANK6r (final concentrations of 5μM) was added to different concentrations of HSA (7.4μM to 420μM, 10–12 different concentrations) or AGP beads (0.04μM to 3μM, 9–12 different concentrations). The amount of unbound ANK6, tANK6, and cANK6r (in %) to HSA or AGP, respectively, was determined by liquid scintillation counter (LSC) measurements. The dissociation constants (KD) as well as the free drug fractions (fu) in human plasma were calculated as described before. Calculations were based on peptide concentrations detected in the blood 4 h after single oral administration of 10 mg/kg: 0.01μM ANK6, 0.01μM tANK6, and 0.01μM cANK6r.

| SMILES | Aβ concentrations in fractions 1 and 2 (Aβ monomers) (Aβ1-42 oligomers) | Aβ oligomer concentrations in fractions 4 to 6 versus Aβ1-42 alone (Aβ1-42 oligomers) | memory performance of tg-APPSwDI mice (tg-APPSwDI mice) | KD to HSA [1] |
| --- | --- | --- | --- | --- |
| CC[C@@H](C)[C@@H](NC(=O)[C@@H](CCCNC(=N)N)NC(=O)[C@@H](CCCCN)NC(=O)[C@H](N)CCCNC(=N)N)C(=O)N[C@H](CCCNC(=N)N)C(=O)N[C@H](CC(C)C)C(=O)N[C@@H](C(=O)N[C@@H](C(=O)N[C@H](CCCCN)C(=O)N[C@H](CCCCN)C(=O)N[C@H](CCCCN)C(=O)N[C@H](CCCNC(=N)N)C(N)=O)[C@H](C)O)C(C)C [ANK6] (H-[dR][dK][dR][dI][dR][dL][dV][dT][dK][dK][dK][dR]-NH2; N-terminus assumed) | reduced the Aβ monomer concentrations much stronger | significantly lowered | a non-significant tendency for improving memory performance | not analyzable |
| CC[C@@H](C)[C@H]1NC(=O)[C@@H](CCCNC(=N)N)NC(=O)[C@@H](CCCCN)NC(=O)[C@@H](CCCNC(=N)N)NC(=O)[C@@H](CCCNC(=N)N)NC(=O)[C@@H](CCCNC(=N)N)NC(=O)[C@@H](CCCCN)NC(=O)[C@@H](CCCCN)NC(=O)[C@@H](CCCCN)NC(=O)[C@@H]([C@H](C)O)NC(=O)[C@@H](C(C)C)NC(=O)[C@@H](CC(C)C)NC(=O)[C@@H](CCCNC(=N)N)NC1=O [cANK6r] (cyclo([dR][dK][dR][dI][dR][dL][dV][dT][dK][dK][dK][dR][dR])) | only slightly lowered | significantly lowered |  |  |
| CC[C@@H](C)[C@@H](NC(=O)[C@@H](CCCNC(=N)N)NC(=O)[C@@H](CCCCN)NC(=O)[C@H](N)CCCNC(=N)N)C(=O)N[C@H](CCCNC(=N)N)C(=O)N[C@H](CC(C)C)C(=O)N[C@@H](C(=O)N[C@@H](C(=O)N[C@H](CCCCN)C(=O)N[C@H](CCCCN)C(=O)N[C@H](CCCCN)C(=O)N[C@H](CCCNC(=N)N)C(=O)N[C@H](CCCNC(=N)N)C(=O)N[C@H](CCCCN)C(=O)N[C@H](CCCNC(=N)N)C(=O)N[C@@H](C(=O)N[C@H](CCCNC(=N)N)C(=O)N[C@H](CC(C)C)C(=O)N[C@@H](C(=O)N[C@@H](C(=O)N[C@H](CCCCN)C(=O)N[C@H](CCCCN)C(=O)N[C@H](CCCCN)C(=O)N[C@H](CCCNC(=N)N)C(N)=O)[C@H](C)O)C(C)C)[C@H](C)CC)[C@H](C)O)C(C)C [tANK6] (H-[dR][dK][dR][dI][dR][dL][dV][dT][dK][dK][dK][dR][dR][dK][dR][dI][dR][dL][dV][dT][dK][dK][dK][dR]-NH2; N-terminus assumed) | reduced the Aβ monomer concentrations much stronger | significantly lowered |  |  |
